The experiment has as its target T1, SMARCA2 (Homo sapiens, UniProt P51531).
T1 construct: endogenous in cells; host or cells: HT1080 (CRISPR HiBiT knock-in clone, generated in house)
The experiment can be described thus: SMARCA2 HiBiT degradation assay (cellular). In kind it is cell-based. The settings on record: table head names A549; for DC50: 6 h incubation, HiBiT-tagged SMARCA2, luminescence read-out, read-out: HiBit A549 SMARCA2 IP (nM) 6 h; for Emax: A549, 6 h incubation, Emax = amount of residual protein remaining in the cell following compound treatment. A general note: The HiBiT peptide binds its large partner to form an active luciferase.

T1 sequence (P51531 whole entry): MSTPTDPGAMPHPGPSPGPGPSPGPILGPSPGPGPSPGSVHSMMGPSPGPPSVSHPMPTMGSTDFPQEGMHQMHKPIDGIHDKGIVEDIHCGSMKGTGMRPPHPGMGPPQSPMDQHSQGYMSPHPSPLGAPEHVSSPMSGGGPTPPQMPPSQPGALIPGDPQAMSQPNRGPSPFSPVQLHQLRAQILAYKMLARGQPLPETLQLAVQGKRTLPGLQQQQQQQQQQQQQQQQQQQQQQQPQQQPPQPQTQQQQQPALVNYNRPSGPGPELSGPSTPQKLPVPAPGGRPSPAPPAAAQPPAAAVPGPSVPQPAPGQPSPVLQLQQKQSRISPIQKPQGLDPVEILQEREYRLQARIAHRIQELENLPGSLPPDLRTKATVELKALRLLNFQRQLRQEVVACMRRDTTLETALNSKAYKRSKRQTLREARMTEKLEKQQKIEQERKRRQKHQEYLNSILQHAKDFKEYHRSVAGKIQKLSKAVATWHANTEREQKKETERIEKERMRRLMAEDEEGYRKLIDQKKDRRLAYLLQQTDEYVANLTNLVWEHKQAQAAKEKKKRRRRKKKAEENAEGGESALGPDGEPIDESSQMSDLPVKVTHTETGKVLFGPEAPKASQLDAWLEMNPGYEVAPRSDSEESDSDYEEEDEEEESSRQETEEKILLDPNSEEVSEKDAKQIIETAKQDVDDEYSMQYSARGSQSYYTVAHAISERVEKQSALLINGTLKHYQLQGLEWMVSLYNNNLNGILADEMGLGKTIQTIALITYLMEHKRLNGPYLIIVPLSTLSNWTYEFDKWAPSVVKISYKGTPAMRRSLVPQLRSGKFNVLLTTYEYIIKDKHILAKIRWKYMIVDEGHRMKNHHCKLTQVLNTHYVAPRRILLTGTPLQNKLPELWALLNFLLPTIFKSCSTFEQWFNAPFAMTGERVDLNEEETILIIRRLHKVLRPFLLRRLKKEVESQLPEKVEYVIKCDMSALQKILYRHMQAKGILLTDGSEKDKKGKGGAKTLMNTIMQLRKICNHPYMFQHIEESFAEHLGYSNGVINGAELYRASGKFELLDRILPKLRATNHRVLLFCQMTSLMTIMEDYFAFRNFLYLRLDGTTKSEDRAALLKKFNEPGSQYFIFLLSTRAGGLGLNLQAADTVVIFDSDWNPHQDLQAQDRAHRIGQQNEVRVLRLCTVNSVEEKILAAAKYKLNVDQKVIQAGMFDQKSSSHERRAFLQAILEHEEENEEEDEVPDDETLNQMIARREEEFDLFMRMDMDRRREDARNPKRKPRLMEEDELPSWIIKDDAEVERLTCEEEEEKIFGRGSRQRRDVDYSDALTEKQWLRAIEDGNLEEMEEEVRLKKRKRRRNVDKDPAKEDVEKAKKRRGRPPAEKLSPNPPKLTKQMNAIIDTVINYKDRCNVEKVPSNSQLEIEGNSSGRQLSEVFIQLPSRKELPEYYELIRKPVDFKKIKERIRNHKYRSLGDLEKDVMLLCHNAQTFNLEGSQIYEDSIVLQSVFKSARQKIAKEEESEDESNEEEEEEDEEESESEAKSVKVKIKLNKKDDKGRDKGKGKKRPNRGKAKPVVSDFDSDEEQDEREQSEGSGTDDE

A word on the Emax: it is the maximal effect, on the per cent scale that the assay sets. With `Nc1nnc(-c2ccccc2O)cc1N1CCC(C(=O)NCC2CCN(C(=O)CCCN3CCC(c4ccc(OC5CCC(=O)NC5=O)cc4)CC3)CC2)(c2ccccc2)CC1` (centres unmarked) [Example 104, 1-(3-amino-6-(2-hydroxyphenyl)pyridazin-4-yl)-N-((1-(4-(4-(4-((2,6-dioxopiperidin-3-yl)oxy)phenyl)piperidin-1-yl)butanoyl)piperidin-4-yl)methyl)-4-phenylpiperidine-4-carboxamide], the DC50 was found to be 103 nM and the maximum response (Emax) is 33%.
In the same order, the values of `Nc1nnc(-c2ccccc2O)cc1N1CCC(NC(=O)CC2CCN(C(=O)CCCN3CCC(c4ccc(NC5CCC(=O)NC5=O)cc4)CC3)CC2)(c2ccccc2)CC1` (centres unmarked) [Example 185, N-[1-[3-amino-6-(2-hydroxyphenyl)pyridazin-4-yl]-4-phenyl-4-piperidyl]-2-[1-[4-[4-[4-[(2,6-dioxo-3-piperidyl)amino]phenyl]-1-piperidyl]butanoyl]-4-piperidyl]acetamide] are 241 nM and 62%.
Regarding `Nc1nnc(-c2ccccc2O)cc1N1CCC(C(=O)N2CC3(CCN(C(=O)C4CCN(c5ccc6c(c5)C(=O)N(C5CCC(=O)NC5=O)C6=O)CC4)C3)C2)(c2ccccc2)CC1` (centres unmarked) [Example 186, 5-(4-(2-(1-(3-amino-6-(2-hydroxyphenyl)pyridazin-4-yl)-4-phenylpiperidine-4-carbonyl)-2,6-diazaspiro[3.4]octane-6-carbonyl)piperidin-1-yl)-2-(2,6-dioxopiperidin-3-yl)isoindoline-1,3-dione], the DC50 was found to be 148 nM and the Emax came to 42%.
Turning to `Nc1nnc(-c2ccccc2O)cc1N1CC2CCC(C1)N2c1cccc(CN2CCN(CCCOC3CCN(c4ccc5c(c4)C(=O)N(C4CCC(=O)NC4=O)C5=O)CC3)CC2)c1` (racemic) [Example 56, rac-5-[4-[3-[4-[[3-[3-[3-Amino-6-(2-hydroxyphenyl)pyridazin-4-yl]-3,8-diazabicyclo[3.2.1]octan-8-yl]phenyl]methyl]piperazin-1-yl]propoxy]-1-piperidyl]-2-(2,6-dioxo-3-piperidyl)isoindoline-1,3-dione], the DC50 came to 10 nM and the Emax came out at 36%.
Turning to `Nc1nnc(-c2ccccc2O)cc1OC1CCCN(c2ccc(N3CCN(CCCCCCCCCn4cc(CCNc5cccc6c5C(=O)N(C5CCC(=O)NC5=O)C6=O)nn4)CC3)cc2)C1` (centres unmarked) [Example 110, 4-[2-[1-[9-[4-[4-[3-[3-amino-6-(2-hydroxyphenyl)pyridazin-4-yl]oxy-1-piperidyl]phenyl]piperazin-1-yl]nonyl]triazol-4-yl]ethylamino]-2-(2,6-dioxo-3-piperidyl)isoindoline-1,3-dione], the DC50 came to 276 nM and the maximal response (Emax) was found to be 52%.
In the same order, the values of `Nc1nnc(-c2ccccc2O)cc1N1CCC(C(=O)NCC2CCN(C(=O)CCCN3CCC(c4ccc(NC5CCC(=O)NC5=O)cc4)CC3)CC2)(c2ccccc2)CC1` (centres unmarked) [Example 105, 1-(3-amino-6-(2-hydroxyphenyl)pyridazin-4-yl)-N-((1-(4-(4-(4-((2,6-dioxopiperidin-3-yl)amino)phenyl)piperidin-1-yl)butanoyl)piperidin-4-yl)methyl)-4-phenylpiperidine-4-carboxamide] are 100 nM and 33%.
For `Nc1nnc(-c2ccccc2O)cc1N1CC2CCC(C1)N2c1cccc(CC2CCN(C(=O)CCC3CCN(c4ccc5c(c4)C(=O)N(C4CCC(=O)NC4=O)C5=O)CC3)CC2)c1` (racemic) [Example 59, rac-5-[4-[3-[4-[[3-[3-[3-amino-6-(2-hydroxyphenyl)pyridazin-4-yl]-3,8-diazabicyclo[3.2.1]octan-8-yl]phenyl]methyl]-1-piperidyl]-3-oxo-propyl]-1-piperidyl]-2-(2,6-dioxo-3-piperidyl)isoindoline-1,3-dione], in that order: 129 nM and 65%.
Compound `Nc1nnc(-c2ccccc2O)cc1N1CCN(c2cccc(CN3CCN(C(=O)C4CCN(c5ccc6c(c5)C(=O)N(C5CCC(=O)NC5=O)C6=O)CC4)CC3)c2)C2(CC2)C1` (centres unmarked) [Example 127, 5-(4-(4-(3-(7-(3-amino-6-(2-hydroxyphenyl)pyridazin-4-yl)-4,7-diazaspiro[2.5]octan-4-yl)benzyl)piperazine-1-carbonyl)piperidin-1-yl)-2-(2,6-dioxopiperidin-3-yl)isoindoline-1,3-dione] had an Emax of 26%.
`Nc1nnc(-c2ccccc2O)cc1N1CC(Oc2ccc(C(=O)N3CCN(C(=O)C4CCN(c5ccc6c(c5)C(=O)N(C5CCC(=O)NC5=O)C6=O)CC4)CC3)c(C(F)(F)F)c2)C1` (racemic) [Example 132, rac-5-[4-[4-[4-[1-[3-amino-6-(2-hydroxyphenyl)pyridazin-4-yl]azetidin-3-yl]oxy-2-(trifluoromethyl)benzoyl]piperazine-1-carbonyl]-1-piperidyl]-2-(2,6-dioxo-3-piperidyl)isoindoline-1,3-dione]: the DC50 was found to be 133 nM and the Emax turned out to be 44%.
For `Nc1nnc(-c2ccccc2O)cc1N1CCC(C(=O)N2CC3(CCN(CCOC4CCN(c5ccc6c(c5)C(=O)N(C5CCC(=O)NC5=O)C6=O)CC4)C3)C2)(c2ccccc2)CC1` (centres unmarked) [Example 192, 5-[4-[2-[2-[1-[3-amino-6-(2-hydroxyphenyl)pyridazin-4-yl]-4-phenyl-piperidine-4-carbonyl]-2,7-diazaspiro[3.4]octan-7-yl]ethoxy]-1-piperidyl]-2-(2,6-dioxo-3-piperidyl)isoindoline-1,3-dione], the DC50 turned out to be 57 nM and the Emax was found to be 34%.
For `Nc1nnc(-c2ccccc2O)cc1N1CC2CCC(C1)N2c1cccc(CN2CCN(C(=O)CN3CCC(c4ccc(NC5CCC(=O)NC5=O)cc4)CC3)CC2)c1` (racemic) [Example 149, rac-3-[4-[1-[2-[4-[[3-[3-[3-Amino-6-(2-hydroxyphenyl)pyridazin-4-yl]-3,8-diazabicyclo[3.2.1]octan-8-yl]phenyl]methyl]piperazin-1-yl]-2-oxo-ethyl]-4-piperidyl]anilino]piperidine-2,6-dione], the DC50 was determined as 18 nM and the Emax is 40%.
For the compound `Nc1nnc(-c2ccccc2O)cc1N1CC2CCC(C1)N2c1cccc(OCCN2CCN(C(=O)C3CCN(c4ccc5c(c4)C(=O)N(C4CCC(=O)NC4=O)C5=O)CC3)CC2)c1` (racemic) [Example 142, rac-5-[4-[4-[2-[3-[3-[3-amino-6-(2-hydroxyphenyl)pyridazin-4-yl]-3,8-diazabicyclo[3.2.1]octan-8-yl]phenoxy]ethyl]piperazine-1-carbonyl]-1-piperidyl]-2-(2,6-dioxo-3-piperidyl)isoindoline-1,3-dione], the DC50 is 2 nM and the Emax came to 14%.
As for `Nc1nnc(-c2ccccc2O)cc1OC1CCCN(c2ccc(OCCN3CCN(C(=O)CCCCCCCCCCCCCCn4cc(CNc5cccc6c5C(=O)N(C5CCC(=O)NC5=O)C6=O)nn4)CC3)cc2)C1` (centres unmarked) [Example 24, 4-[[1-[15-[4-[2-[4-[3-[3-amino-6-(2-hydroxyphenyl)pyridazin-4-yl]oxy-1-piperidyl]phenoxy]ethyl]piperazin-1-yl]-15-oxo-pentadecyl]triazol-4-yl]methylamino]-2-(2,6-dioxo-3-piperidyl)isoindoline-1,3-dione], the DC50 came to 256 nM and the Emax worked out at 56%.
For `Nc1nnc(-c2ccccc2O)cc1N1CC2CCC(C1)N2c1cccc(OCCN2CCN(C(=O)C3CCN(c4cccc5c4C(=O)N(C4CCC(=O)NC4=O)C5=O)CC3)CC2)c1` (racemic) [Example 13, rac-4-[4-[4-[2-[3-[3-[3-amino-6-(2-hydroxyphenyl)pyridazin-4-yl]-3,8-diazabicyclo[3.2.1]octan-8-yl]phenoxy]ethyl]piperazine-1-carbonyl]-1-piperidyl]-2-(2,6-dioxo-3-piperidyl)isoindoline-1,3-dione], in that order: 32 nM and 64%.
Turning to `Nc1nnc(-c2ccccc2O)cc1OC1CCCN(c2ccc(N3CCN(C(=O)CCCCCCCC(=O)N4CC[C@H](Nc5cccc6c5C(=O)N(C5CCC(=O)NC5=O)C6=O)C4)CC3)cc2)C1` (mixture of isomers) [Example 45, 2-(2,6-dioxo-3-piperidyl)-4-[[rac-(3S)-1-[9-[4-[4-[3-[3-amino-6-(2-hydroxyphenyl)pyridazin-4-yl]oxy-1-piperidyl]phenyl]piperazin-1-yl]-9-oxo-nonanoyl]pyrrolidin-3-yl]amino]isoindoline-1,3-dione], the DC50 stood at 627 nM and the Emax stood at 58%.
For `Nc1nnc(-c2ccccc2O)cc1N1CCN(c2cccc(OCCN3CCN(C(=O)C4CCN(c5ccc6c(c5)C(=O)N(C5CCC(=O)NC5=O)C6=O)CC4)CC3)c2)C2(CCC2)C1` (centres unmarked) [Example 197, 5-[4-[4-[2-[3-[8-[3-amino-6-(2-hydroxyphenyl)pyridazin-4-yl]-5,8-diazaspiro[3.5]nonan-5-yl]phenoxy]ethyl]piperazine-1-carbonyl]-1-piperidyl]-2-(2,6-dioxo-3-piperidyl)isoindoline-1,3-dione], in that order: 46 nM and 30%.
In the case of `Nc1nnc(-c2ccccc2O)cc1N1CC2CCC(C1)N2c1cccc(OC2CCN(C(=O)C3CCN(c4ccc5c(c4)C(=O)N(C4CCC(=O)NC4=O)C5=O)CC3)CC2)c1` (racemic) [Example 113, rac-5-[4-[4-[3-[3-[3-amino-6-(2-hydroxyphenyl)pyridazin-4-yl]-3,8-diazabicyclo[3.2.1]octan-8-yl]phenoxy]piperidine-1-carbonyl]-1-piperidyl]-2-(2,6-dioxo-3-piperidyl)isoindoline-1,3-dione], the DC50 is 19 nM and the Emax turned out to be 35%.
In the same order, the values of `Nc1nnc(-c2ccccc2O)cc1N1CC2CCC(C1)N2c1cccc(OCCN2CCN(C(=O)N3CCN(c4ccc(OC5CCC(=O)NC5=O)cc4)CC3)CC2)c1` (racemic) [Example 51, rac-3-[4-[4-[4-[2-[3-[3-[3-amino-6-(2-hydroxyphenyl)pyridazin-4-yl]-3,8-diazabicyclo[3.2.1]octan-8-yl]phenoxy]ethyl]piperazine-1-carbonyl]piperazin-1-yl]phenoxy]piperidine-2,6-dione] are 86 nM and 54%.

The record behind these values is patent publication US20230024096A1, “BIFUNCTIONAL COMPOUNDS FOR THE TREATMENT OF CANCER” (Hoffmann-La Roche Inc., priority 2019, published 2023).
